# According to publication PMC1065314, “A2B adenosine receptor activity is reduced in neutrophils from patients with systemic sclerosis” (Arthritis Research & Therapy, 2004):
# Biological target: T1, A2B adenosine receptor (Homo sapiens, UniProt P29275)
# T1 construct: Aliquots of neutrophil membranes (0.2–0.4 mg proteins) were incubated in a final volume of 250 μl T2 buffer; from tissue; host or cells: neutrophils from healthy volunteers and systemic sclerosis patients (membranes)
# T1 sequence (P29275 1-332): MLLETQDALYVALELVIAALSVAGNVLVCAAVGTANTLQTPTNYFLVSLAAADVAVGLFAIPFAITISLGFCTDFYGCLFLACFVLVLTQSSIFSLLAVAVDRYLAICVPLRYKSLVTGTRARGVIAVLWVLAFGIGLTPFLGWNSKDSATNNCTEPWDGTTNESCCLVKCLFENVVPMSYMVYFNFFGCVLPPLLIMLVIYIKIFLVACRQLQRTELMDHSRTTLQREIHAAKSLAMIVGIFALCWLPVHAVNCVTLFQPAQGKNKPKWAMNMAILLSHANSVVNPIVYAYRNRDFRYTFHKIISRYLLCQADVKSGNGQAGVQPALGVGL
# Test: [3H]NECA binding to A2B AR in neutrophil membranes (plus CPA and SCH58261)
# Conditions: read-out: [^3H]NECA Ki; control neutrophil membranes; competition with 20 nmol/l [3H]NECA plus 50 nmol/l CPA and 100 nmol/l SCH58261; mean ± SEM of three experiments; Cheng and Prusoff
# Procedure: For membrane preparation, cells were washed twice with 10 mmol/l Tris-HCl buffer, pH 7.4, containing 10 mmol/l MgCl2, in the presence of protease inhibitors (200 μg/ml bacitracine, 160 μg/ml benzamidine, 20 μg/ml trypsin inhibitor [T1]) and centrifuged at 48,000 g for 15 min at 4°C. Pellets were diluted in 20 volumes of T1 buffer, treated with ADA (2 IU/ml) for 60 min at 37°C to remove endogenous adenosine, and washed twice with 50 mmol/l Tris-HCl buffer, pH 7.4, containing 10 mmol/l MgCl2 (T2).
# Aliquots of neutrophil membranes (0.2–0.4 mg proteins) were incubated in a final volume of 250 μl T2 buffer. […] After 90 min incubation at 0°C, the reaction was terminated either by vacuum filtration through Whatman GF/C glass fibre filters, accompanied by three washes with ice-cold T2 buffer (4 ml), or by centrifugation at 2900 g for 15 min at 4°C. A2B AR specificity was evaluated through competition experiments, using different AR ligands.
row,SMILES,Ki [nM]
1,O=C(Cc1ccccc1)Nc1nc2ccc(Cl)cc2c2nc(-c3ccco3)nn12 [MRS1220],> 10000
2,Nc1nc(Cl)nc2c1ncn2[C@@H]1O[C@H](CO)[C@@H](O)[C@H]1O [2 Cl-adenosine],954 ± 600
3,CCCn1c(=O)c2[nH]c(-c3ccc(OCC(=O)Nc4ccc(C(C)=O)cc4)cc3)nc2n(CCC)c1=O [MRS1706],5 ± 0.3
